# From patent US6350609B1, “Electrospraying for mass fabrication of chips and libraries” (New York University, priority 1997, dated 2002)
# “And” between values parts separate entries of the source, which are not always exact repeats. Equal values may be shown once.
# T1: Pancreatic RNAse (Bos taurus, UniProt P61823)
# T1 construct: purchased Sigma, St. Louis
# T1 sequence (P61823 27-150): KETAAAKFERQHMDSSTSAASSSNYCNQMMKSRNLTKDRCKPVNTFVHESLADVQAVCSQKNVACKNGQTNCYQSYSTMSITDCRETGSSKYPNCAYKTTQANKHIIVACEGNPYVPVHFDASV
# T2: 3-phosphoglycerate kinase (yeast) (Saccharomyces cerevisiae, UniProt P00560)
# T2 sequence (P00560 1-416): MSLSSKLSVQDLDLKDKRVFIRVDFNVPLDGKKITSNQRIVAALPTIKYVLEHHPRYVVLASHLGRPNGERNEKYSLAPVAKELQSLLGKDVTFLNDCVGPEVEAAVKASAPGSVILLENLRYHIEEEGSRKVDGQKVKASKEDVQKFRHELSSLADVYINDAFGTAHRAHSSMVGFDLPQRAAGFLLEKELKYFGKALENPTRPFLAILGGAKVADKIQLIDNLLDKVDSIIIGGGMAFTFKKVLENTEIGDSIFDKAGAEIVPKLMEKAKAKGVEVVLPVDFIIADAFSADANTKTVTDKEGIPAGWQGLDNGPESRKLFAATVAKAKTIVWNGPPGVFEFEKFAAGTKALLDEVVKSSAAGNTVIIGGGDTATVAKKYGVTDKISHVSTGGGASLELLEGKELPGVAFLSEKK
# B1: ovalbumin: protein antigen electrospray deposited onto IMMOBILON-P filter (protein, UniProt P01012 2-386, looked up)
# Ovalbumin: GSIGAASMEFCFDVFKELKVHHANENIFYCPIAIMSALAMVYLGAKDSTRTQINKVVRFDKLPGFGDSIEAQCGTSVNVHSSLRDILNQITKPNDVYSFSLASRLYAEERYPILPEYLQCVKELYRGGLEPINFQTAADQARELINSWVESQTNGIIRNVLQPSSVDSQTAMVLVNAIVFKGLWEKAFKDEDTQAMPFRVTEQESKPVQMMYQIGLFRVASMASEKMKILELPFASGTMSMLVLLPDEVSGLEQLESIINFEKLTEWTSSNVMEERKIKVYLPRMKMEEKYNLTSVLMAMGITDVFSSSANLSGISSAESLKISQAVHAAHAEINEAGREVVGSAEAGVDAASVSEEFRADHPFLFCIKHIATNAVLFFGRCVSP
# How the values were obtained:
# Pancreatic RNAse = biological target: T1, Pancreatic RNAse; assay: Mechano-chemical effect of a specific ligand on cross-linked protein film (isometric tension); assay type: biochemical; settings: ligand 5-10 times binding constant
# [1] = biological target: T3, Alkaline phosphatase (AP) from bovine intestinal mucosa (Bos taurus, UniProt P19111); assay: Effect of AgNO3 added to AP solution on AP activity; assay type: biochemical; settings: 10^−4 M AgNO3 added to the AP solution
# T3 construct: purchased Sigma Chemical Co., St. Louis, Mo; host or cells: bovine intestinal mucosa
# T3 sequence (P19111 20-506): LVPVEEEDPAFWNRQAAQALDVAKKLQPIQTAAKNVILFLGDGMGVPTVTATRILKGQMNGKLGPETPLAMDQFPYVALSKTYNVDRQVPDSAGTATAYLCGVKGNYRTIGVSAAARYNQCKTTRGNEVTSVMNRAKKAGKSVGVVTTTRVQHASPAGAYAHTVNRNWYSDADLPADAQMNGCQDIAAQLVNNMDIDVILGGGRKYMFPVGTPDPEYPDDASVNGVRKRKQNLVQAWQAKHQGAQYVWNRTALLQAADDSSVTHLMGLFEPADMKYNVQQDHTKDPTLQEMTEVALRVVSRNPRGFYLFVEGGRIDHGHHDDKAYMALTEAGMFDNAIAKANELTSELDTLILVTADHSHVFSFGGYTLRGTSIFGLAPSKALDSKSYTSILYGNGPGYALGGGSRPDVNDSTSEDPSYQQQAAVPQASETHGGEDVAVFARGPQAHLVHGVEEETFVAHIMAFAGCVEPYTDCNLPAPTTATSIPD
# Method: AP activity was measured immediately after spot extraction by adding 5-20 μL of the extract solution to 1.0 mL of the p-NPP solution in the TRIS/HCl buffer prepared from Sigma Fast tablets. Activity was measured in a room with a thermostat, with a temperature of 25±1° C. […] The specific activity was calculated using protein concentration measured gravimetrically, as described above in the mass measurement section.
# It is believed, therefore, that the inactivation of AP at high voltages and currents occur outside the capillary as a result of reaction with the products of corona discharge or as the result of impact with the target electrode. Impact energy should grow with an increase of the potential, causing protein distraction on impact. This can explain the increase in AP inactivation with increasing voltage and current. The generation of corona products in electrospray deposition at I>200-300 nA was noticeable from a characteristic smell of ozone in the electrospray chamber. […] The capillary with the external electrode supports corona discharge more readily than the capillary with the internal electrode, which explains why AP is inactivated at lower currents and to a higher extent when electrospray deposited from the capillary with the external electrode.
# Pancreatic Trypsin = assay: Mechano-chemical effect of a specific ligand on cross-linked protein film (isometric tension); assay type: biochemical; settings: ligand concentration 5-10 times binding constant; for Effect in Dried Sample % (relative change in isometric tension in protein film induced by binding of specific ligand): conventional drying on glass
# Avidin = Avidin (Gallus gallus, UniProt P02701); assay: as above; assay type: biochemical; settings: ligand 5-10 times binding constant
# Chain of Avidin (P02701 25-152, species assumed): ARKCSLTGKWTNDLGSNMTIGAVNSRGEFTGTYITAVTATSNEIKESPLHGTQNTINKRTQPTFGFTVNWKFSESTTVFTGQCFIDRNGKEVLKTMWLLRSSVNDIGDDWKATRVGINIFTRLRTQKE
# α-Lactalburnin = assay: as above; assay type: biochemical
# Description: Using protein as an example of a biomolecule for electrospray deposition, the structure of the protein film and the functional properties of the protein molecules in the film is dependent on the path of flight of the electrospray, speed of the charged particles controlled by voltage, sign of the charges, humidity and temperature under which the protein molecules are electrosprayed, protein concentration in solution, and presence of stabilizers. At short distances, e.g., about 15 mm between capillary and substrate, or when the electrospray takes place in a humid atmosphere (relative humidity of more than 70-80%), charged microdroplets from the electrospray can reach the surface without decay or the production of dry ions, i.e., in the wet electrospray regime. The sample films obtained after evaporation of the deposited microdroplets on the substrate have much in common with the sample protein films obtained conventionally by applying a protein solution directly to the substrate and allowing the proteins to dry.
# [2] = biological target: T2, 3-phosphoglycerate kinase (yeast); assay: as above; assay type: biochemical; settings: cross-linked 3-phosphoglycerate kinase (yeast) film, ligand 5-10 times binding constant
# Lysozyme (egg) = Lysozyme (egg) (Gallus gallus, UniProt P00698); assay: as above; assay type: biochemical; settings: ligand 5-10 times binding constant
# Chain of Lysozyme (egg) (P00698 19-147): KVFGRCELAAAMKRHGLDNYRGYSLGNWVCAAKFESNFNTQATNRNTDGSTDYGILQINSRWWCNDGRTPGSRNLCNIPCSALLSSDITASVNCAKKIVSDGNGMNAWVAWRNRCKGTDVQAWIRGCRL
# [3] = biological target: T4, Alcohol dehydrogenase (horse liver) (Equus caballus, UniProt P00327); assay: as above; assay type: biochemical; settings: 0.4 mM NADH solution
# T4 construct: purchased Sigma, St. Louis, Mo; host or cells: horse liver
# T4 sequence (P00327 whole entry): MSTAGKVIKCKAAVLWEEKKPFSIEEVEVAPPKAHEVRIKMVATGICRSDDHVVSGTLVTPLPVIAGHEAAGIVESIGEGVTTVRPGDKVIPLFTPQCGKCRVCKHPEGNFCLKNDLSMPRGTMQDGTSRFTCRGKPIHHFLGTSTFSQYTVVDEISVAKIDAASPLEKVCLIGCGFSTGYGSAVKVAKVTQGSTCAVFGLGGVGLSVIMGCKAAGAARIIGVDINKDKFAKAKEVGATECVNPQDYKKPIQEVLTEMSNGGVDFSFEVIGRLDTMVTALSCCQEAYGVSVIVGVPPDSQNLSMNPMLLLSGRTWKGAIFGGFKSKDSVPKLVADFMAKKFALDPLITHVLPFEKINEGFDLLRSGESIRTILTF
# Method: A film of horse liver alcohol dehydrogenase (LADH, Sigma, St. Louis, Mo., shown in FIG. 14B, was fabricated on an Al electrode covered with a sublayer consisting of 95% of the sodium salt of alginic acid (Sigma, St. Louis, Mo.) and 5 of Triton X-100 detergent. The LADH solution containing 5 mg/ml of protein and 1.5 mg/ml of sucrose was electrosprayed in dry air at +4.3 kV and 30-40 nA from a capillary placed about 15 mm over the substrate. The deposited film was cross-linked for 8 minutes with the vapor from 25% glutaraldehyde at 28° C. The samples were then tested for their ability to change isometric tension in response to 0.4 mM NADH solution.
# [4] = tested on: goat antibody against human serum albumin; assay: microELISA of electrospray-deposited protein antigens on IMMOBILON-P filter; assay type: binding; settings: primary antibody against human serum albumin 1:1000, AP-labeled secondary antibody 1:3000
# Method: Different antigens (serum albumins from human and ox, ovalbumin and human hemoglobin) were electrospray deposited onto a wetted IMMOBILON-P membrane filter through a mask having multiple holes. After each deposition of a different protein antigen, the mask was shifted by 1.1 mm. After depositing all four protein antigens, the membrane filter was dried for 15 min. at 37° C. and blocked by soaking in a PBS solution (10 mM sodium phosphate buffer, pH 7.2, 0.9% NaCl) with 0.05% Tween-20, 1% chicken albumin (ovalbumin). […] The filter was then washed twice with PBS buffer for 10 seconds and reacted with a solution of anti-goat IgG antibodies labeled with alkaline phosphatase (Sigma, diluted 1:3000).
# peroxidase = assay: Enzyme activity of electrospray-deposited peroxidase on nitrocellulose filter (DAB substrate); assay type: biochemical; settings: deposited through polypropylene mask onto wetted nitrocellulose filter; DAB staining
# Description: The electrospray conditions used in this example were similar to those used in Example 1.
# After electrospray, the pattern of deposited enzyme was not visible on the membrane filter surface. However, the patterns of the enzymes did become visible after soaking the peroxidase-deposited membrane filter in a solution of a standard peroxidase substrate (3,3′-diaminobenzidine, abbreviated DAB, and obtained from Sigma, St. Louis, Mo.), resulting in the formation of an insoluble brown colored product of the peroxidase reaction.
# Concanavalin A = Concanavalin A (Canavalia ensiformis, UniProt P02866); settings: cross-linked Concanavalin A film, ligand 5-10 times binding constant
# Method: Protein films were prepared by electrospray for use in a mechanochemical method of assay. A 2 mg/ml concanavalin A (Sigma, St. Louis, Mo.) solution, containing 0.5 mg/ml of glycerol was electrosprayed through a rectangular single hole onto an Al electrode covered with a polymeric conducting sublayer of about 2-5 microns thick. The sublayer was prepared by drying a thin layer of water solution of a mixture of three compounds (polyethylene glycol-8000, poly(anetholesulfonic acid)—Na-salt and Triton X-100), 3%. each. The protein solution was electrosprayed from a capillary tip placed 20 mm over the substrate, with positive voltage of 4.0 kV at the capillary and a current of 33 nA. Deposition was performed in dry air for 10 minutes. After electrospray deposition, the sample was cross-linked for 15 minutes in a vapor of 25% glutaraldehyde (Aldrich Chemical Company, Milwaukee, Wis.) at 25° C. Upon applying a droplet of water on the substrate surface, the sample was floated off the substrate within 5 seconds.
molecule,measurement,setting,value
Nc1ccn([C@@H]2O[C@H](CO)[C@@H](OP(=O)(O)O)[C@H]2O)c(=O)n1 [3′-Cytidine monophosphate],Effect in Dried Sample % (relative change in isometric tension),Pancreatic RNAse; conventional drying on glass,+4.0%
same,Effect in Electrospray Deposit Sample % (relative change in isometric tension),Pancreatic RNAse; electrospray deposited,−3.4%
O=[N+]([O-])[O-].[Ag+] [AgNO3],inhibition of AP,[1],does not result in any inhibition
CCOC(=O)[C@H](CCCN=C(N)N)NC(=O)c1ccccc1 [BAEE],Effect in Dried Sample % (relative change in isometric tension in protein film induced by binding of specific ligand),Pancreatic Trypsin,+23%
O=C(O)CCCC[C@@H]1SC[C@@H]2NC(=O)N[C@@H]21 [Biotin],Effect in Dried Sample % (relative change in isometric tension),Avidin; conventional drying on glass,−51%
same,Effect in Electrospray Deposit Sample % (relative change in isometric tension),Avidin; electrospray deposited,−41% and −48%
[Ca+2] [Ca^+2],Effect in Dried Sample % (relative change in isometric tension),"α-Lactalburnin; cross-linked α-Lactalburnin film, conventional drying on glass, ligand 5-10 times binding constant",+240%
same,Effect in Electrospray Deposit Sample % (relative change in isometric tension),"α-Lactalburnin; cross-linked α-Lactalburnin film, electrospray deposited, ligand 5-10 times binding constant",+370%
same,difference in mechanochemical response to ligand between wet electrospray deposited and conventionally prepared films,"α-Lactalburnin; α-lactalbumin films, wet electrospray deposition onto glass covered with conducting SnO2 layer",No notable difference
Nc1ncnc2c1ncn2[C@@H]1O[C@H](COP(=O)(O)OP(=O)([O-])OP(=O)([O-])O)[C@@H](O)[C@H]1O.[Mg+2] [Mg-ATP],Effect in Dried Sample % (relative change in isometric tension),[2]; conventional drying on glass,+13%
same,Effect in Electrospray Deposit Sample % (relative change in isometric tension),[2]; electrospray deposited,+16%
CC(=O)N[C@H]1C(O)O[C@H](CO)[C@@H](O)[C@@H]1O (stereo partly drawn) [N-acetyl-D-glucosamine],Effect in Dried Sample % (relative change in isometric tension),Lysozyme (egg); conventional drying on glass,−7.7% and −8.7%
same,Effect in Electrospray Deposit Sample % (relative change in isometric tension),Lysozyme (egg); electrospray deposited,−6.3% and −3.5%
NC(=O)C1=CN([C@@H]2O[C@H](COP(=O)(O)OP(=O)(O)OC[C@H]3O[C@@H](n4cnc5c(N)ncnc54)[C@H](O)[C@@H]3O)[C@@H](O)[C@H]2O)C=CC1 [NADH],ligand-induced increase in isometric tension,[3]; conventionally prepared LADH film,6-7%
same,ligand-induced increase in isometric tension,"[3]; electrospray deposited LADH film, glutaraldehyde cross-linked",6-7%
Nc1ccc2cc3ccc(N)cc3nc2c1 [Proflavin],Effect in Dried Sample % (relative change in isometric tension in protein film induced by binding of specific ligand),Pancreatic Trypsin,+69%
same,Effect in Electrospray Deposit Sample % (relative change in isometric tension in protein film induced by binding of specific ligand),Pancreatic Trypsin; electrospray deposited,+72; +72%
"bovine albumin: serum albumin from ox, antigen electrospray deposited onto filter",spot intensity in microELISA,[4],less intensively colored
human hemoglobin: protein antigen electrospray deposited onto IMMOBILON-P filter,spot intensity in microELISA,[4],less intensively colored
"peroxidase: commercially available peroxidase (Sigma), electrospray deposited; horseradish peroxidase per b108",enzymatic activity after electrospray deposition,peroxidase,retained
α-D-mannopyranoside,Effect in Dried Sample % (relative change in isometric tension),Concanavalin A; conventional drying on glass,+11%
same,Effect in Electrospray Deposit Sample % (relative change in isometric tension),Concanavalin A; electrospray deposited,+4%
B1,spot intensity in microELISA,[4],not visible at all
